“Also recorded” adds a separate entry of the source.
How the values were obtained:
Assay type in all cases: in vivo, human
[1] = tested on: metastatic colon cancer, liver metastasis; experiment: Prior therapies of the Example 1 patient before C225; settings: same patient
Method: (§1) A patient presented with abdominal pain and constipation. […] Pathology confirmed metastatic colon cancer which is incurable. […] Since there were no other standard treatment options their tumor was assayed for EGF receptor which was positive.

[2] = tested on: colon cancer relapse (unresectable peritoneal disease, pulmonary metastasis); experiment: Example 2: same patient after relapse, treated again with C225 and dose reduced CPT-11, then C225 alone; settings: dose reduced CPT-11 with C225
Description: The subsequent history of the patient described in Example 1 is as follows. […] This was resected and subsequently they received both intrahepatic and systemic chemotherapy (FUDR and CPT-11) for 6 months.

[3] = tested on: metastatic colon cancer (EGF receptor positive); experiment: Example 1: patient with metastatic colon cancer treated with C225 and CPT-11; settings: IRINOTECAN 125 mg/m^2 weekly given with C225
Method: as §1
For the first two weeks, IRINOTECAN® was administered at a dose of 125 mg/m^2.

## CCc1c2c(nc3ccc(OC(=O)N4CCC(N5CCCCC5)CC4)cc13)-c1cc3c(c(=O)n1C2)COC(=O)[C@]3(O)CC [IRINOTECAN]
[1]
  disease course on prior therapy: continued to progress in the liver
[2]
  tolerability of CPT-11: discontinued secondary to toxicity
[3]
  toxicity causing IRINOTECAN dose to be held or reduced: diarrhea; also recorded: neutropenia

## O=C1[O][Pt]2([NH][C@@H]3CCCC[C@H]3[NH]2)[O]C1=O [OXALOPLATIN]
[1]
  disease course on prior therapy: further disease progression in the liver

## O=c1[nH]cc(F)c(=O)[nH]1 [5-FU, 5-fluorouracil]
[1]
  disease course on prior therapy: progressed with increasing liver metastasis

— US20080008704A1, “Methods of treating colorectal cancer with anti-epidermal growth factor antibodies” (priority 2001, published 2008)
